{"source": "ChEMBL document CHEMBL5104164", "about": "“Design, synthesis, and biological evaluation of pyrrolopyrimidine derivatives as novel Bruton's tyrosine kinase (BTK) inhibitors” (Eur J Med Chem, 2022)", "key": {"[1]": {"assay": "Tmax in male BALB/c mouse at 2 mg/kg, iv", "format": "ADME, organism-based", "details": "in vivo"}, "[2]": {"assay": "Clearance in male BALB/c mouse at 2 mg/kg, iv", "format": "ADME, organism-based", "details": "in vivo"}, "[3]": {"assay": "Tmax in male BALB/c mouse at 10 mg/kg, po", "format": "ADME, organism-based", "details": "in vivo"}, "[4]": {"molecular_target": "Receptor tyrosine-protein kinase erbB-4 (Homo sapiens) (UniProt Q15303)", "sequence (Q15303 whole entry)": "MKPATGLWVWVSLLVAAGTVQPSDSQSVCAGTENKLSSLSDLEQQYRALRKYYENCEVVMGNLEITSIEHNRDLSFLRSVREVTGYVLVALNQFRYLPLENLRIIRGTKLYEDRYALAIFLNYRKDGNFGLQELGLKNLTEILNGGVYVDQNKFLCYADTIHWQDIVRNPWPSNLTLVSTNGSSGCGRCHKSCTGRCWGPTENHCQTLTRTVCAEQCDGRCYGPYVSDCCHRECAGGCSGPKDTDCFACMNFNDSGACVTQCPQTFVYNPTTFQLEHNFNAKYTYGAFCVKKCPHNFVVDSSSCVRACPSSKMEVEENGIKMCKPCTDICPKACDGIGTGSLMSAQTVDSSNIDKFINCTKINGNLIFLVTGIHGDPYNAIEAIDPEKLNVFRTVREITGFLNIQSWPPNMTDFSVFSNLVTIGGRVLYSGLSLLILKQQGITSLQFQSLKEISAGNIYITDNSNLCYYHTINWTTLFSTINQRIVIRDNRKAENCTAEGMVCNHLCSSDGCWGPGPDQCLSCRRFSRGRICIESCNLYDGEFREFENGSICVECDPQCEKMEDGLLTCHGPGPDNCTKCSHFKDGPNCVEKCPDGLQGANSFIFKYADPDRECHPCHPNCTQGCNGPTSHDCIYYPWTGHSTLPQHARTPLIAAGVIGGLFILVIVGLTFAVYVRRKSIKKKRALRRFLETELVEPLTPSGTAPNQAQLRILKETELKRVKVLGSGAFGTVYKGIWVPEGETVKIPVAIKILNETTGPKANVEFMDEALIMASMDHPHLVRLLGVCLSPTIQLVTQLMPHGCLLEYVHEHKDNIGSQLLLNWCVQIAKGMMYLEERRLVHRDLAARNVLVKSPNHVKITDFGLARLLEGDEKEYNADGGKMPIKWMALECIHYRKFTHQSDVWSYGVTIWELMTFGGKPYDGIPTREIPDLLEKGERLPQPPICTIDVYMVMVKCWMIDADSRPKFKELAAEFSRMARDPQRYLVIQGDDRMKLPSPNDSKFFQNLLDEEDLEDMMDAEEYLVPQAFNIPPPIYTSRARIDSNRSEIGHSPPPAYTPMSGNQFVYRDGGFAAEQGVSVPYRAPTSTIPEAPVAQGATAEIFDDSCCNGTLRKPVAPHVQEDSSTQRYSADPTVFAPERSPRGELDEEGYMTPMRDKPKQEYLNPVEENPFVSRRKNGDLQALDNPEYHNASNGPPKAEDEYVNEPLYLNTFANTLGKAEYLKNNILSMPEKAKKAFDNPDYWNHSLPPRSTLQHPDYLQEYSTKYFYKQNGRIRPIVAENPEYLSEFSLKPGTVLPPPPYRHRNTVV", "assay": "Inhibition of ERBB4 (unknown origin) assessed as residual percent of control at 1 uM measured by DiscoverX kinome scan assay relative to control"}, "[5]": {"molecular_target": "T1, Tyrosine-protein kinase JAK3 (Homo sapiens) (UniProt P52333)", "T1 sequence (whole entry)": "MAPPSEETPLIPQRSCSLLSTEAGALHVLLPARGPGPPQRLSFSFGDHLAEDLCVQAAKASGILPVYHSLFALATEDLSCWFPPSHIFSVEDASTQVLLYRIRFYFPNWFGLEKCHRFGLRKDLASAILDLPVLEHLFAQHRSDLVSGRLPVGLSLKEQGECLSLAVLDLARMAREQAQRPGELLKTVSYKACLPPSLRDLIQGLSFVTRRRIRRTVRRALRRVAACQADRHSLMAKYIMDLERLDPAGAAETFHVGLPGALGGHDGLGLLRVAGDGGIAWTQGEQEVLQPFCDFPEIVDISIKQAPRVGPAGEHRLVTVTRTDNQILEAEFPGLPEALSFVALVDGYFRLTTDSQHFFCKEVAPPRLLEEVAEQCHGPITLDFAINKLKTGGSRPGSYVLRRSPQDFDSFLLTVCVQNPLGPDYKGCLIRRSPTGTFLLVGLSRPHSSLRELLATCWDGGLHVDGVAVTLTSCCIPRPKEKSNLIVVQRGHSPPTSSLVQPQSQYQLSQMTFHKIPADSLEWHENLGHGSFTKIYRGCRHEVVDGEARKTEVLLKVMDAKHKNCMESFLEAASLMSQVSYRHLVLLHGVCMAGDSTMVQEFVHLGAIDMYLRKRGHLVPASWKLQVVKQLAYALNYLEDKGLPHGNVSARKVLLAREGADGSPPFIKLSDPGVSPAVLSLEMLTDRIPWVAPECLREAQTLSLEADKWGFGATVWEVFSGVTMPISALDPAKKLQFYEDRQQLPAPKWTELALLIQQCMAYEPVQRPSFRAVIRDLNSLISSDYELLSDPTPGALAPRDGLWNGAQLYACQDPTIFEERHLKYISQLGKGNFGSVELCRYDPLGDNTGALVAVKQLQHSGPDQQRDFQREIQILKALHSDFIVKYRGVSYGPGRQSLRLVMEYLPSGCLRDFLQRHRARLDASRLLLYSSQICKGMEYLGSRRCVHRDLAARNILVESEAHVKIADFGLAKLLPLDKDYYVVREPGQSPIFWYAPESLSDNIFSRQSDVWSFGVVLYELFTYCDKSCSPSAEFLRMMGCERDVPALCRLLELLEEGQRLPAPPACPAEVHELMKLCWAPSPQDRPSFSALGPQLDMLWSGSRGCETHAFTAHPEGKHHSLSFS", "assay": "Inhibition of Jak3 (unknown origin) assessed as residual percent of control at 1 uM measured by DiscoverX kinome scan assay relative to control"}, "[6]": {"test_system": "Pfeiffer", "assay": "Antiproliferative activity against human Pfeiffer cells incubated for 72 hrs by CellTiter-Glo assay", "format": "functional, cell-based"}, "[7]": {"test_system": "DOHH-2", "assay": "Antiproliferative activity against human DOHH-2 cells incubated for 72 hrs by CellTiter-Glo assay", "format": "functional, cell-based", "details": "DOHH-2, 72 h"}, "[8]": {"test_system": "Ramos", "assay": "Antiproliferative activity against human Ramos cells incubated for 72 hrs by CellTiter-Glo assay", "format": "functional, cell-based"}, "[9]": {"test_system": "TMD8", "assay": "Cell cycle arrest in human TMD8 cells assessed as accumulation of cells at S phase at 10 nM after 48 hrs by propidium iodide staining based flow cytometric analysis (reference value: 49.3%)", "format": "functional"}, "[10]": {"test_system": "TMD8", "assay": "Cell cycle arrest in human TMD8 cells assessed as accumulation of cells at G0/G1 phase at 100 nM after 48 hrs by propidium iodide staining based flow cytometric analysis (reference value: 32.9%)", "format": "functional"}, "[11]": {"test_system": "TMD8", "assay": "Cell cycle arrest in human TMD8 cells assessed as accumulation of cells at S phase at 100 nM after 48 hrs by propidium iodide staining based flow cytometric analysis (reference value: 49.3%)", "format": "functional"}, "[12]": {"assay": "Mutagenicity in Salmonella typhimurium TA98 at 1.5 to 1000 ug per plate by AMES test", "format": "toxicity, Salmonella enterica subsp. enterica serovar Typhimurium", "details": "dose 1.5-1000 µg"}, "[13]": {"assay": "Mutagenicity in Salmonella typhimurium TA1535 at 1.5 to 1000 ug per plate by AMES test", "format": "toxicity, Salmonella enterica subsp. enterica serovar Typhimurium", "details": "dose 1.5-1000 µg"}, "[14]": {"assay": "Toxicity in female CB-17 SCID nude mouse xenografted with human TMD8 cells assessed as reduction in monocytes at 50 mg/kg, po administered twice daily for 21 days", "format": "organism-based", "details": "in vivo, 504 h, time 21 day"}, "[15]": {"assay": "Mutagenicity in Salmonella typhimurium TA98 at 1.5 to 1000 ug per plate in presence of liver microsomes by AMES test", "format": "toxicity, Salmonella enterica subsp. enterica serovar Typhimurium", "details": "dose 1.5-1000 µg"}, "[16]": {"assay": "Mutagenicity in Salmonella typhimurium TA1535 at 1.5 to 1000 ug per plate in presence of liver microsomes by AMES test", "format": "toxicity, Salmonella enterica subsp. enterica serovar Typhimurium", "details": "dose 1.5-1000 µg"}, "[17]": {"assay": "Mutagenicity in Salmonella typhimurium TA1537 at 1.5 to 1000 ug per plate in presence of liver microsomes by AMES test", "format": "toxicity, Salmonella enterica subsp. enterica serovar Typhimurium", "details": "dose 1.5-1000 µg"}}, "data": [{"smiles": "C=CC(=O)N1CC=C(c2c[nH]c3ncnc(-c4ccc(CNC(=O)c5ccccc5)c(F)c4)c23)CC1", "values": [{"measurement": "Tmax", "setting": "[1]", "result": 1.8, "unit": "min"}, {"measurement": "clearance", "setting": "[2]", "result": 47.8, "unit": "mL/min/kg"}, {"measurement": "Tmax", "setting": "[3]", "result": 23.4, "unit": "min"}, {"measurement": "Activity", "setting": "[4]", "result": 0.55, "unit": "%"}, {"measurement": "Activity", "setting": "[5]", "result": 3.8, "unit": "%"}, {"measurement": "IC50", "setting": "[6]", "result": "> 10", "unit": "µM"}, {"measurement": "IC50", "setting": "[7]", "result": 5.26, "unit": "µM"}, {"measurement": "IC50", "setting": "[8]", "result": "> 10", "unit": "µM"}, {"measurement": "Activity", "setting": "[9]", "result": 26.4, "unit": "%"}, {"measurement": "Activity", "setting": "[10]", "result": 63, "unit": "%"}, {"measurement": "Activity", "setting": "[11]", "result": 24.6, "unit": "%"}, {"measurement": "Activity", "setting": "[12]", "result": "Non-Toxic"}, {"measurement": "Activity", "setting": "[13]", "result": "Non-Toxic"}, {"measurement": "Activity", "setting": "[14]", "result": "Toxic"}, {"measurement": "Activity", "setting": "[15]", "result": "Non-Toxic"}, {"measurement": "Activity", "setting": "[16]", "result": "Non-Toxic"}, {"measurement": "Activity", "setting": "[17]", "result": "Non-Toxic"}]}]}
